# From US9321756B2, “Azole compounds as PIM inhibitors” (priority 2011, dated 2016)
# Like-named read-outs stand apart in the source and are kept apart here.
# What was measured:
# Assay type in all cases: biochemical
# [1] = target: full length recombinant Pim-2 (Homo sapiens (Human), UniProt Q9P1W9); test: Pim enzyme assay (HTRF, phosphorylation of biotinylated-BAD (S112) peptide), Pim-2; conditions: read-out: Pim2_IC50
# [2] = target: full length recombinant Pim-1 (Homo sapiens (Human), UniProt P11309); test: Pim enzyme assay (HTRF, phosphorylation of biotinylated-BAD (S112) peptide), Pim-1
# Sequence of full length recombinant Pim-1 (P11309 whole entry): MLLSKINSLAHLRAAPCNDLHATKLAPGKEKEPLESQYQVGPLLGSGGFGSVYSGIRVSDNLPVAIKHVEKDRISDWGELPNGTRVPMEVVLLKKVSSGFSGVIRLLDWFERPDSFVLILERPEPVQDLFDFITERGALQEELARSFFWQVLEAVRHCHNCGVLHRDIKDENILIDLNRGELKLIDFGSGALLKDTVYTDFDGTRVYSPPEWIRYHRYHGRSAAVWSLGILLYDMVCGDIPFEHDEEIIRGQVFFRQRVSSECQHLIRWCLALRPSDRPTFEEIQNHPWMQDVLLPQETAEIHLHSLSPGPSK
# [3] = target: full length recombinant Pim-3 (Homo sapiens (Human), UniProt Q86V86); test: Pim enzyme assay (HTRF, phosphorylation of biotinylated-BAD (S112) peptide), Pim-3; conditions: Pim-3 enzyme assay; read-out: Pim3 IC50
# From the text: Pim-3 was purchased from Millipore (UK).
# The phosphorylation of biotinylated-BAD (S112) peptide by full length recombinant Pim-1, Pim-2, or Pim-3 protein was detected with streptavidin:Allophycocyanin (APC) conjugate and a europium (Eu) labeled antibody directed against phosphorylated-BAD (S112). […] The fluorescence is directly proportional to the amount of phosphorylated BAD peptide present in the reaction.
# A reference compound was included on each assay plate in order to validate that plate; on one plate of every assay run, two additional reference compounds were included.
# The final buffer conditions were as follows: 60 mM Hepes, pH 7.0, 0.05% BSA, 2 mM DTT. Incubations were carried out at RT (22° C.) for 2 h for Pim-1, 1 h and 30 min for Pim-3, and 45 min for Pim-2. The reaction was then stopped by the addition of 3 mM EDTA, and fluorescence was measured by an HTRF® Rubystar microplate reader. For each plate, percent of control (POC) values were calculated for each well. Values for the IC50 IP were estimated using a standard 4-parameter logistic model.
# [4] = Pim-1 enzyme assay, read-out: Pim_1_IC50
# [5] = HTRF, 10-point curve, high dose 1 uM, 45 min at RT
# [6] = HTRF, 10-point curve, high dose 1 uM, 2 h at RT, read-out: Pim_1_IC50
# Sequence of full length recombinant Pim-2 (Q9P1W9 whole entry): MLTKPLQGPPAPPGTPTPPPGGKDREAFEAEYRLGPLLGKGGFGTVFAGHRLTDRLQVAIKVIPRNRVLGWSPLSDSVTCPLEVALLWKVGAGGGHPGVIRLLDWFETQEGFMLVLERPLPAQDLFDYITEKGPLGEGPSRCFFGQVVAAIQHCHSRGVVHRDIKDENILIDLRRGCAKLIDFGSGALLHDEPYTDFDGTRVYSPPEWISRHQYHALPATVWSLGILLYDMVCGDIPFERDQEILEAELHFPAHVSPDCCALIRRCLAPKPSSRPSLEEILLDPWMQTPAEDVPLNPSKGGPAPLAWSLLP
Compound,IC50 ([1]; Pim-2 enzyme assay),"IC50 [2, 4]","IC50 [1, 5]","IC50 [2, 6]",other results
"C[C@H]1CCCCN1c1nc(-c2c[nH]c3ccc(-c4nnc(N)s4)cc23)cs1 (stereo in doubt) [Example 184, 5-(3-(2-(2-methyl-1-piperidinyl)-1,3-thiazol-4-yl)-1H-indol-5-yl)-1,3,4-thiadiazol-2-amine]",602 nM,161 nM,,,IC50 [3]: 94.7 nM
"Nc1nnc(-c2ccc3[nH]cc(-c4cncc(-c5ccc(F)cc5)n4)c3c2)o1 [Example 7, 5-(3-(6-(4-fluorophenyl)pyrazin-2-yl)-1H-indol-5-yl)-1,3,4-oxadiazol-2-amine]",42.5 nM,28.8 nM,,,IC50 [3]: 19.7 nM
"COc1cncc(-c2c[nH]c3ccc(-c4nnc(N)o4)nc23)c1 [Example 10, 5-(3-(5-methoxypyridin-3-yl)-1H-pyrrolo[3,2-b]pyridin-5-yl)-1,3,4-oxadiazol-2-amine]",570 nM,1130 nM,,,IC50 [3]: 642 nM
"Cc1nc(-c2c[nH]c3ccc(-c4nnc(N)s4)cc23)ccc1F [Example 191, 5-(3-(5-fluoro-6-methyl-2-pyridinyl)-1H-indol-5-yl)-1,3,4-thiadiazol-2-amine]",,,,,IC50 [3]: 144 nM
"CC(C)Cc1nnc(-c2ccc3[nH]cc(-c4cncc(C5CC5)n4)c3c2)o1 [Example 265, 3-(6-cyclopropyl-2-pyrazinyl)-5-(5-(2-methylpropyl)-1,3,4-oxadiazol-2-yl)-1H-indole]",51 nM,,,,IC50 [2]: 28.6 nM
"Fc1cccc(Nc2nnc(-c3ccc4[nH]cc(-c5nccc(C6CC6)n5)c4c3)o2)c1 [Example 269, 5-(3-(4-cyclopropyl-2-pyrimidinyl)-1H-indol-5-yl)-N-(3-fluorophenyl)-1,3,4-oxadiazol-2-amine]",450 nM,364 nM,,,
"CC(C)(C)Nc1nnc(-c2ccc3[nH]cc(-c4nccc(C(N)=O)n4)c3c2)o1 [Example 273, 2-(5-(5-(tert-butylamino)-1,3-4-oxadiazol-2-yl)-1H-indol-3-yl)-4-pyrimidinecarboxamide]",28.5 nM,11.8 nM,,,
"Cc1cncc(-c2c[nH]c3ccc(-c4nnc(-c5ccccc5)s4)cc23)n1 [Example 274, 3-(6-methyl-2-pyrazinyl)-5-(5-phenyl-1,3,4-thiadiazol-2-yl)-1H-indole]",> 1000 nM,,,,IC50 [2]: > 1000 nM
"CC(C)(C)Nc1nnc(-c2ccc3[nH]cc(-c4ncc(C(N)=O)s4)c3c2)o1 [Example 277, 2-(5-(5-(tert-butylamino)-1,3,4-oxadiazol-2-yl)-1H-indol-3-yl)-1,3-thiazole-5-carboxamide]",,,393 nM,58.2 nM,
"CNC(=O)c1ccnc(-c2c[nH]c3ccc(-c4nnc(NC(C)C)o4)cc23)n1 [Example 282, N-methyl-2-(5-(5-((1-methylethyl)amino)-1,3,4-oxadiazol-2-yl)-1H-indol-3-yl)-4-pyrimidinecarboxamide 2,2,2-trifluoroacetate]",,,652 nM,509 nM,
"CC(C)Nc1nnc(-c2ccc3[nH]cc(-c4nccc(C(=O)NC5CC5)n4)c3c2)o1 [Example 283, N-cyclopropyl-2-(5-(5-((1-methylethyl)amino)-1,3,4-oxadiazol-2-yl)-1H-indol-3-yl)-4-pyrimidinecarboxamide 2,2,2-trifluoroacetate]",,,453 nM,517 nM,
"CS(=O)(=O)c1ccc(-c2c[nH]c3ccc(-c4nnc(N)o4)cc23)nc1 [Example 284, 5-(3-(5-(methylsulfonyl)-2-pyridinyl)-1H-indol-5-yl)-1,3,4-oxadiazol-2-amine 2,2,2-trifluoroacetate]",,,,515 nM,IC50 [1]: 555 nM
"CNC(=O)c1cccc(-c2c[nH]c3ccc(-c4nnc(NC(C)C)o4)cc23)n1 [Example 285, 6-(5-(5-(isopropylamino)-1,3,4-oxadiazol-2-yl)-1H-indol-3-yl)-N-methylpicolinamide]",,,760 nM,401 nM,
"CNC(=O)c1cncc(-c2c[nH]c3ccc(-c4nnc(NC(C)C)o4)cc23)c1 [Example 286, 5-(5-(5-(isopropylamino)-1,3,4-oxadiazol-2-yl)-1H-indol-3-yl)-N-methylnicotinamide]",,,843 nM,713 nM,

# Second part, led by results:
IC50 ([1]; Pim-2 enzyme assay),"IC50 [2, 4]","IC50 [1, 5]","IC50 [2, 6]",Compound,other results
106 nM,159 nM,,,"COc1nc(-c2c[nH]c3ccc(-c4nnc(NC(C)C)o4)cc23)nc(C)c1F [Example 260, 5-(3-(5-fluoro-4-methoxy-6-methyl-2-pyrimidinyl)-1H-indol-5-yl)-N-(1-methylethyl)-1,3,4-oxadiazol-2-amine]",
70.8 nM,,,,"CC(C)Nc1nnc(-c2ccc3[nH]cc(-c4nccc(C(N)=O)n4)c3c2)o1 [Example 261, 2-(5-(5-((1-methylethyl)amino)-1,3,4-oxadiazol-2-yl)-1H-indol-3-yl)-4-pyrimidinecarboxamide]",IC50 [2]: 105 nM
2.77 nM,2.53 nM,,,"CC(C)Nc1nnc(-c2ccc3[nH]cc(-c4ncc(F)c(C5CC5)n4)c3c2)o1 [Example 262, 5-(3-(4-cyclopropyl-5-fluoro-2-pyrimidinyl)-1H-indol-5-yl)-N-(1-methylethyl)-1,3,4-oxadiazol-2-amine]",
383 nM,241 nM,,,"CC(C)Nc1nnc(-c2ccc3[nH]cc(-c4nc(C5CC5)n[nH]4)c3c2)o1 [Example 263, 5-(3-(3-cyclopropyl-1H-1,2,4-triazol-5-yl)-1H-indol-5-yl)-N-(1-methylethyl)-1,3,4-oxadiazol-2-amine]",
34.8 nM,8.77 nM,,,"Cc1ccnc(-c2c[nH]c3ccc(-c4nnc(NC(C)(C)C)o4)cc23)n1 [Example 270, N-tert-butyl-5-(3-(4-methyl-2-pyrimidinyl)-1H-indol-5-yl)-1,3,4-oxadiazol-2-amine]",
351 nM,105 nM,,,"Cc1cc(N)nc(-c2c[nH]c3ccc(-c4nnc(NC(C)(C)C)o4)cc23)n1 [Example 272, 2-(5-(5-(tert-butylamino)-1,3-4-oxadiazol-2-yl)-1H-indol-3-yl)-6-methyl-4-pyrimidinamine]",
,,705 nM,259 nM,"CC(C)Nc1nnc(-c2ccc3[nH]cc(-c4ncc(C(=O)NC5CC5)s4)c3c2)o1 [Example 275, N-cyclopropyl-2-(5-(5-((1-methylethyl)amino)-1,3,4-oxadiazol-2-yl)-1H-indol-3-yl)-1,3-thiazole-5-carboxamide]",
,,315 nM,111 nM,"CC(C)Nc1nnc(-c2ccc3[nH]cc(-c4ncc(C(N)=O)s4)c3c2)o1 [Example 276, 2-(5-(5-((1-methylethyl)amino)-1,3,4-oxadiazol-2-yl)-1H-indol-3-yl)-1,3-thiazole-5-carboxamide]",
,,408 nM,186 nM,"CC(C)Nc1nnc(-c2ccc3[nH]cc(-c4nc(C(=O)NC5CC5)cs4)c3c2)o1 [Example 278, N-cyclopropyl-2-(5-(5-((1-methylethyl)amino)-1,3,4-oxadiazol-2-yl)-1H-indol-3-yl)-1,3-thiazole-4-carboxamide]",
,,301 nM,,"CNC(=O)c1ccc(F)c(-c2c[nH]c3ccc(-c4nnc(NC(C)C)o4)cc23)c1 [Example 289, 4-fluoro-3-(5-(5-(isopropylamino)-1,3,4-oxadiazol-2-yl)-1H-indol-3-yl)-N-methylbenzamide]",IC50 [2]: 233 nM
,,238 nM,,"CC(C)Nc1nnc(-c2ccc3[nH]cc(-c4ccc(C(N)=O)cc4F)c3c2)o1 [Example 290, 3-fluoro-4-(5-(5-(isopropylamino)-1,3,4-oxadiazol-2-yl)-1H-indol-3-yl)benzamide]",IC50 [2]: 69.6 nM
,,541 nM,496 nM,"CC(C)Nc1nnc(-c2ccc3[nH]cc(-c4cccc(C(=O)N(C)C)n4)c3c2)o1 [Example 292, N,N-dimethyl-6-(5-(5-((1-methylethyl)amino)-1,3,4-oxadiazol-2-yl)-1H-indol-3-yl)-2-pyridinecarboxamide]",
,,> 1000 nM,> 1000 nM,"CC(C)Nc1nnc(-c2ccc3[nH]cc(-c4cncc(C(=O)N(C)C)c4)c3c2)o1 [Example 296, N,N-dimethyl-5-(5-(5-((1-methylethyl)amino)-1,3,4-oxadiazol-2-yl)-1H-indol-3-yl)-3-pyridinecarboxamide]",
,,73.8 nM,39.2 nM,"COc1nccc(-c2c[nH]c3ccc(-c4nnc(NC(C)C)o4)cc23)n1 [Example 297, 5-(3-(2-methoxy-4-pyrimidinyl)-1H-indol-5-yl)-N-(1-methylethyl)-1,3,4-oxadiazol-2-amine]",
,,24.4 nM,15.9 nM,"COc1nc(-c2c[nH]c3ccc(-c4nnc(NC(C)C)o4)cc23)cc(=O)[nH]1 [Example 298, 2-methoxy-6-(5-(5-((1-methylethyl)amino)-1,3,4-oxadiazol-2-yl)-1H-indol-3-yl)-4(3H)-pyrimidinone]",
,,299 nM,767 nM,"CC(C)Nc1nnc(-c2ccc3[nH]cc(-c4cncc(C(=O)NC5CC5)c4)c3c2)o1 [Example 299, N-cyclopropyl-5-(5-(5-((1-methylethyl)amino)-1,3,4-oxadiazol-2-yl)-1H-indol-3-yl)-3-pyridinecarboxamide]",
,,115 nM,70 nM,"CC(C)Nc1nnc(-c2ccc3[nH]cc(NC(=O)c4ccncc4)c3c2)o1 [Example 304, N-(5-(5-((1-methylethyl)amino)-1,3,4-oxadiazol-2-yl)-1H-indol-3-yl)-4-pyridinecarboxamide]",
